Results from article PMC12648656, “Palladium(II) Complexes with Noncovalent Interactions with DNA: Solution Speciation Controlled by Solvent Identity, pH, and Concentration” (Inorganic Chemistry, 2025).

How the values were obtained:
pBR322 plasmid DNA = experiment: Agarose gel electrophoresis mobility shift; type: binding; conditions: r i 0.01 to 0.20, 24 h, 37 °C
Procedure: Complexes (2) and (3) were incubated at 37 °C with a concentration of 0.0625 μg/μL pBR322 plasmid DNA at different concentrations expressed as r i = complex:DNA (base pair) ratio. The r i used was from 0.01 to 0.20, in a total volume of 20 μL. After an incubation period of 24 h, the mobility of the complex-treated pBR322 samples was analyzed by gel electrophoresis at 70 V in Tris/acetate/EDTA buffer. A control of pBR322 was also incubated, and a 1 kb ladder aliquot was loaded into lane 1 of the gel. The gel was stained with an ethidium bromide aqueous solution, and DNA bands were visualized with a UV-transilluminator UVITEC Cambridge UVIDOC HD2 instrument. The studies were performed with 3% (v/v) DMSO as the final solution.

calf thymus-DNA (CT-DNA) = experiment: Viscometry with CT-DNA; type: binding; conditions: compound/DNA ratios 0.0 to 1.0; 5 mM Tris, 100 mM NaCl, pH 7.40, 25.0 °C
Procedure: […] Then, the samples were incubated at 37 °C and with constant shaking at 300 rpm for 10 min and 1 h. After each incubation, the viscosity was measured at a constant temperature of 25.0 ± 0.2 °C in a vibrational viscometer. The relative viscosity was calculated by taking the mean values of three replicate measurements, and the values were represented by plotting the values of relative viscosity of CT-DNA (η/η0)^1/3 against 1/R.

[1] = system: Colo 205 human colon cancer cell line; parameters: method as in marks after cisplatin lost in b83 (probably 43, 44); conditions: Colo 205, 72 h exposure; ref marks after cisplatin lost in b83 (probably 43, 44); cited from earlier work
[2] = system: MCF7 human breast cancer cell line; parameters: method as in marks after cisplatin lost in b83 (probably 43, 44); conditions: MCF7, 72 h exposure; ref marks after cisplatin lost in b83 (probably 43, 44); cited from earlier work
[3] = biological target: T1, hen egg white lysozyme (HEWL) (Gallus gallus, UniProt P00698); parameters: method as in not given; conditions: reported under the same conditions; ref not given; cited from earlier work
T1 construct: a model protein, namely HEWL (hen egg white lysozyme), was also studied; from tissue; host or cells: hen egg white (from the protein's name)
T1 sequence (P00698 19-147): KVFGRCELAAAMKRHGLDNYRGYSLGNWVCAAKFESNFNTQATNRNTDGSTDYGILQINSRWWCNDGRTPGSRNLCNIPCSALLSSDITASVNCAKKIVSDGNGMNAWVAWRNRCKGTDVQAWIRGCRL

SMILES: N.N.[Cl][Pt][Cl] [Cisplatin]
- effect on electrophoretic mobility of pBR322 (two forms, SC and OC) (pBR322 plasmid DNA): changes in the mobility of the pBR322 isoforms
- effect on relative viscosity of CT-DNA (calf thymus-DNA (CT-DNA)): relative viscosity of the solution decreases
- IC50 [1]: 23 ± 1 µM
- IC50 [2]: 15 ± 0.01 µM
- observed rate constant k obs [3]: 1.98 × 10^–4 s^–1
